Test results from paper PMC5916922, “The Bexsero Neisseria meningitidis serogroup B vaccine antigen NHBA is a high-affinity chondroitin sulfate binding protein” (Scientific Reports, 2018).
Counter-ions that a name gives are not always drawn. Like-named read-outs stand apart in the source and are kept apart here.

Experiments:
[1] = system: NHBA (Neisseria Heparin Binding Antigen), recombinant (Neisseria meningitidis MC58 (serogroup B)); assay: ITC; details: SPR: Biacore T200, CM5 chip, 1:5 dilution series 1 nM-100 uM, single cycle kinetics; ITC: nano-ITC, PBS-NHBA control (PBS implied); pH and temperature not …
[2] = system: NHBA (Neisseria Heparin Binding Antigen), recombinant (Neisseria meningitidis MC58 (serogroup B)); assay: SPR; details: SPR: Biacore T200, CM5 chip, 1:5 dilution series 1 nM-100 uM, single cycle kinetics; ITC: nano-ITC, PBS-NHBA control (PBS implied); pH and temperature not …
[3] = target: T1, NHBA (Neisseria Heparin Binding Antigen), recombinant (Neisseria meningitidis, UniProt Q7DD37); assay: SPR, single cycle kinetics, immobilised NHBA
T1 construct: pET19b, His-tagged; forward primer codes from SPDVK (lipoprotein signal peptide removed); immobilised by amine coupling on CM5 chip
T1 sequence (Q7DD37 25-488): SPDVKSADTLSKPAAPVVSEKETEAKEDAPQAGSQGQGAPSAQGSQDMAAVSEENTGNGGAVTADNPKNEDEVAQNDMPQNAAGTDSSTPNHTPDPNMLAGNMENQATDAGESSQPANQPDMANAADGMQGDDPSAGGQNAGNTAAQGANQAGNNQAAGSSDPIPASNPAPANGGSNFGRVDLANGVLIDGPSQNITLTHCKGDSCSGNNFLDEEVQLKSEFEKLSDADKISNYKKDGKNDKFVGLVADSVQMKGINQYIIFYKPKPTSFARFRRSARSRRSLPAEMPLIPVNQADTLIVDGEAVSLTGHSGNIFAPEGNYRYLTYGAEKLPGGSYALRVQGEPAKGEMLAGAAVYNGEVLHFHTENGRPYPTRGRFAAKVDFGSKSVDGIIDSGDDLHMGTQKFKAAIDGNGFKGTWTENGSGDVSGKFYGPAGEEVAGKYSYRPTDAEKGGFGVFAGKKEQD

[4] = read-out: KD (μM) (mean ± standard deviation); recombinant NHBA amine-coupled to CM5 chip; glycan in flow
[5] = recombinant NHBA amine-coupled to CM5 chip; glycan in flow

For “503 bp PCR fragment of N. meningitidis genomic DNA”, the Kd [1] was 3.33 µM and the Kd [2] was 0.071 µM.

With CC(=O)N[C@H]1C(O)O[C@H](CO)[C@@H](O[C@@H]2O[C@H](CO)[C@H](O[C@H]3O[C@H](CO)[C@H](O)[C@H](O)[C@H]3O)[C@H](O)[C@H]2O)[C@@H]1O (stereo partly drawn) [2E, P1 antigen] the Kd [3, 4] was 14.9 ± 3.48 µM.

CC(=O)N[C@H]1C(O)O[C@H](CO)[C@@H](O[C@@H]2O[C@@H](C)[C@@H](O)[C@@H](O)[C@@H]2O)[C@@H]1O[C@@H]1O[C@H](CO)[C@H](O)[C@H](OS(=O)(=O)O)[C@H]1O (stereo partly drawn) [8A, Sulfo Lewis A] showed a Kd [3, 4] of 33.4 ± 2.54 µM.

For O=S(=O)(O)O[C@@H]1[C@H](O[C@H]2O[C@@H]3CO[C@H]([C@H]2O)[C@H]3O[C@@H]2O[C@H](CO)[C@H](O)[C@H](O[C@H]3O[C@@H]4CO[C@@H]([C@H]4O)[C@H]3O)[C@H]2O)[C@@H](O)C(O)O[C@@H]1CO (stereo partly drawn) [12B, Neocarratetraose-4^1-O-sulfate (Na+)], the Kd [3, 4] was 0.446 ± 0.151 µM.

For CC(=O)N[C@H]1C(O)O[C@H](CO)[C@@H](O)[C@@H]1O[C@@H]1OC(C(=O)O)=C[C@H](O)[C@H]1O (stereo partly drawn) [13E, Hyaluronan disaccharide ΔDi-HA], the Kd [3, 4] was 0.13 ± 0.03 µM.

For CC(=O)N[C@H]1C(O)O[C@H](CO)[C@H](OS(=O)(=O)O)[C@@H]1O[C@@H]1OC(C(=O)O)=C[C@H](O)[C@H]1OS(=O)(=O)O (stereo partly drawn) [chondroitin disaccharide sulfated at 2 of GlcA/IdoA and 4 of GalNAc], the Kd [3, 5] was 0.5 µM.

Compound CC(=O)N[C@H]1C(O)O[C@H](COS(=O)(=O)O)[C@H](O)[C@@H]1O[C@@H]1OC(C(=O)O)=C[C@H](O)[C@H]1OS(=O)(=O)O (stereo partly drawn) [chondroitin sulfate type D disaccharide] has a Kd [3, 5] of 0.0095 µM.

In the case of O=P(O)(O)OC[C@H]1O[C@@H](O)[C@H](O)[C@@H](O)[C@@H]1O [compound 46, β-Glc6P], the Kd ([3]; recombinant NHBA amine-coupled to CM5 chip; glycan in flow; read-out: KD (μM) (mean ± standard deviation)) is reported as 0.056 ± 0.025 µM.
